Like-named read-outs stand apart in the source and are kept apart here.
Key:
[1] = cited from earlier work; for Kp,uu,brain Human: *3 ref Summerfield et al. (25)
in vivo [2] = conditions: for Kp uu at 6 h: cynomolgus monkey, in vivo; for Kp,uu,CSF Monkey: lumbar CSF; for Kp,uu,CSF Monkey / Kp,uu,brain Monkey: *1 data internally obtained
Procedure: Monkey experiments were conducted internally or at the Drug Safety Research Laboratories in Shin Nippon Biomedical Laboratories via consignment to Axcelead Drug Discovery Partners. […] Detailed dosage regimen for each compound is summarized in Supplemental Table 3. […] Each cassette was assigned to a separate group of monkeys. The vehicle was saline or a mixture of dimethylacetamide and 1,3-butanediol (1:1, v/v). At the end of the 6-h infusion or 1 h after intravenous bolus administration, the monkeys were anesthetized, and whole blood, CSF, and whole brain were collected. Blood was collected using the anticoagulant, heparin sodium, and immediately centrifuged; the plasma was transferred to polypropylene tubes. Then, ketamine hydrochloride (50 mg/mL; 0.2 mL/kg; 10 mg/kg) was intramuscularly administered. CSF was collected after lumbar puncture using a spinal needle (22–25G) and a syringe pre-wetted with 10% CHAPS solution to prevent adsorption of compounds to all the equipment during pretreatment. CSF samples were immediately centrifuged, and the supernatant layers were transferred to polypropylene tubes. […] After collecting the cerebellum, hippocampus, and cerebral cortex from the whole brain, these were washed with cold saline, weighed, and homogenized immediately in 4 volumes of ice-cold 100 mmol/L sodium phosphate buffer. All samples were stored at –80°C until analysis by LC-MS/MS. Each sample (50 μL) was mixed with the working solution (the mixture of dimethyl sulfoxide and acetonitrile (2:8, v/v)), and protein was precipitated by the addition of 150 μL acetonitrile containing the internal standards (5 ng/mL alprenolol and diclofenac). After centrifugation at 5,250 rpm and 4°C for 5 min, the supernatant (150 μL) was transferred to a polypropylene 96-well plate (Corning; Corning, NY, USA) and completely evaporated under a gentle stream of N2. The residue was reconstituted in dilution solution (mobile phase A/B (7:3, v/v)), and the supernatant was analyzed by LC-MS/MS.
Each sample (50 μL) was mixed with the working solution (the mixture of dimethyl sulfoxide and acetonitrile (2:8, v/v)), and the protein was precipitated by adding 150 μL acetonitrile containing internal standards (5 ng/mL alprenolol and diclofenac). After centrifugation at 5250 rpm and 4°C for 5 min, the supernatant (150 μL) was transferred to a polypropylene 96-well plate (Corning) and completely evaporated under a gentle stream of N2. The residue was reconstituted in mobile phase A/B (7:3, v/v)), and the supernatant was analyzed by LC-MS/MS. API5000 and QTRAP5500 (AB SCIEX, Framingham, MA, USA) equipped with Ultra-Fast Liquid Chromatography (Shimadzu, Kyoto, Japan) were used for determination of drug concentrations. Reversed-phase chromatography was performed using Shim-pack XR ODS (2.2 μm, 2.0×30 mm). Mobile phase A consisted of 10 mM ammonium formate with 0.2% formic acid, and mobile phase B contained acetonitrile with 0.2% formic acid. […] The mass spectrometer was operated in the positive ionization mode with multiple reaction monitoring (MRM). The MRM parameters (Q1 ion, Q3 ion, DP, EP, CE, and CXP) for monitoring the compounds are shown in Supplemental Table 4. Data acquisition and processing were performed using Analyst 1.6.2 (AB SCIEX, Framingham, MA, USA).
(§1) To perform correlation analyses between the observed Kp,uu,brain and Kp,uu,CSF, and the model-based prediction of Kp,uu,brain and Kp,uu,CSF, data from literature information were integrated into the internally obtained data for these assessments (Supplemental Table 2) ([17],[22]–[24],[27]–[33]). When only the total concentrations in plasma, CSF, and brain were available, the total concentration ratio in plasma to CSF or brain (Kp,CSF or Kp,brain, respectively) was estimated, followed by calculation of Kp,uu,CSF or Kp,uu,brain based on Eqs.

BCRP = target: T1, BCRP (Homo sapiens, UniProt Q9UNQ0); test: Transcellular transport across MDCK-BCRP cell monolayers (efflux ratio); conditions: dog, pH 7.4
T1 sequence (Q9UNQ0 1-655): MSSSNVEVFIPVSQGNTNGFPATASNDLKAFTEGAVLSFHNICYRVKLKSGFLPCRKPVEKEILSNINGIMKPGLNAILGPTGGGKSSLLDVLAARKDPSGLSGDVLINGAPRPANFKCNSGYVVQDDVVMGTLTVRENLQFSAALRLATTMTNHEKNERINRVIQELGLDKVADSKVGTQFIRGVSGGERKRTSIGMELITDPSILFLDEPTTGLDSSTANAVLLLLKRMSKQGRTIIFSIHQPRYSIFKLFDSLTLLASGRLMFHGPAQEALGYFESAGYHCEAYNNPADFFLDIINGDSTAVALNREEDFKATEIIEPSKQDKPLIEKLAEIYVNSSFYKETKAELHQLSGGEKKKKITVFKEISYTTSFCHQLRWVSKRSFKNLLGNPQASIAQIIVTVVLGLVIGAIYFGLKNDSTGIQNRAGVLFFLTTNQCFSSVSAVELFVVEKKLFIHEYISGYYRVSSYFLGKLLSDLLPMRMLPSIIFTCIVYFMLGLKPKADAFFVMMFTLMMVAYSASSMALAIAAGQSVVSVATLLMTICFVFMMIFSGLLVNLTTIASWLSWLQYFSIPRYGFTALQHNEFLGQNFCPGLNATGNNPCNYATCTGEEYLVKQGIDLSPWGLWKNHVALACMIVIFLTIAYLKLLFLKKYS
Procedure: (§2) To the compounds available internally, in vitro efflux ratios for MDR1 and BCRP were determined by the following procedure (Supplemental Table 2). Test compound stock solutions in dimethyl sulfoxide (DMSO) were diluted in transport buffer (Hanks’ balanced salt solution (HBSS) with 10 mM HEPES, pH 7.4) to a concentration of 1 μM (DMSO < 1%) and applied to the apical or basolateral side of a cell monolayer derived from Madin-Darby canine kidney (MDCK)-MDR1 and MDCK-BCRP cells. Permeation of the test compounds from apical to basolateral (A to B) direction or B to A direction was measured in duplicate. The plate was incubated for 1 h in a CO2 incubator at 37±1°C with 5% CO2 at saturated humidity without shaking. In addition, the efflux ratio of each compound was also determined. Test and reference compounds were quantified by LC-MS/MS analysis based on the peak area ratio of analyte/internal standard.
(§3) The apparent permeability coefficient Papp (cm/s) was calculated by using Eq. 1: 1 Papp=dCr/dt×Vr/A×C0 where dCr/dt is the cumulative concentration of the compound in the receiver chamber as a function of time (μM/s); Vr is the volume of the solution in the receiver chamber (0.075 mL on the apical side, 0.25 mL on the basolateral side); A is the surface area for transport, i.e., 0.0804 cm^2 for the area of the monolayer; and C0 is the initial concentration (μM) in the donor chamber.
(§4) The efflux ratio was calculated using Eq. 2: 2 Efflux ratio=Papp,BtoA/Papp,AtoB

MDR1 = MDR1 (Homo sapiens, UniProt P08183); test: in vitro; conditions: dog, MDCK-MDR1, pH 7.4
Procedure: as §2, §3, §4

in vivo [3] = conditions: for Kp uu: rat
Procedure: The CSF samples collected from cisterna magna in rats were stored at –80°C until analysis by liquid chromatography-tandem mass spectrometry (LC-MS/MS). Before performing the LC-MS/MS analysis, these samples were thawed on ice and mixed with three volumes of acetonitrile. The acetonitrile mixtures were vortexed and centrifuged, and the supernatant was collected. After dilution with mobile phase A (a mixture of 10 mM ammonium formate and formic acid at 100:0.2 (v/v)), the supernatant was injected into the LC-MS/MS system.
as §1

[4] = cited from earlier work
[5] = monkey; *9 ref Nagaya et al. (19); cited from earlier work

Sequence of MDR1 (P08183 whole entry): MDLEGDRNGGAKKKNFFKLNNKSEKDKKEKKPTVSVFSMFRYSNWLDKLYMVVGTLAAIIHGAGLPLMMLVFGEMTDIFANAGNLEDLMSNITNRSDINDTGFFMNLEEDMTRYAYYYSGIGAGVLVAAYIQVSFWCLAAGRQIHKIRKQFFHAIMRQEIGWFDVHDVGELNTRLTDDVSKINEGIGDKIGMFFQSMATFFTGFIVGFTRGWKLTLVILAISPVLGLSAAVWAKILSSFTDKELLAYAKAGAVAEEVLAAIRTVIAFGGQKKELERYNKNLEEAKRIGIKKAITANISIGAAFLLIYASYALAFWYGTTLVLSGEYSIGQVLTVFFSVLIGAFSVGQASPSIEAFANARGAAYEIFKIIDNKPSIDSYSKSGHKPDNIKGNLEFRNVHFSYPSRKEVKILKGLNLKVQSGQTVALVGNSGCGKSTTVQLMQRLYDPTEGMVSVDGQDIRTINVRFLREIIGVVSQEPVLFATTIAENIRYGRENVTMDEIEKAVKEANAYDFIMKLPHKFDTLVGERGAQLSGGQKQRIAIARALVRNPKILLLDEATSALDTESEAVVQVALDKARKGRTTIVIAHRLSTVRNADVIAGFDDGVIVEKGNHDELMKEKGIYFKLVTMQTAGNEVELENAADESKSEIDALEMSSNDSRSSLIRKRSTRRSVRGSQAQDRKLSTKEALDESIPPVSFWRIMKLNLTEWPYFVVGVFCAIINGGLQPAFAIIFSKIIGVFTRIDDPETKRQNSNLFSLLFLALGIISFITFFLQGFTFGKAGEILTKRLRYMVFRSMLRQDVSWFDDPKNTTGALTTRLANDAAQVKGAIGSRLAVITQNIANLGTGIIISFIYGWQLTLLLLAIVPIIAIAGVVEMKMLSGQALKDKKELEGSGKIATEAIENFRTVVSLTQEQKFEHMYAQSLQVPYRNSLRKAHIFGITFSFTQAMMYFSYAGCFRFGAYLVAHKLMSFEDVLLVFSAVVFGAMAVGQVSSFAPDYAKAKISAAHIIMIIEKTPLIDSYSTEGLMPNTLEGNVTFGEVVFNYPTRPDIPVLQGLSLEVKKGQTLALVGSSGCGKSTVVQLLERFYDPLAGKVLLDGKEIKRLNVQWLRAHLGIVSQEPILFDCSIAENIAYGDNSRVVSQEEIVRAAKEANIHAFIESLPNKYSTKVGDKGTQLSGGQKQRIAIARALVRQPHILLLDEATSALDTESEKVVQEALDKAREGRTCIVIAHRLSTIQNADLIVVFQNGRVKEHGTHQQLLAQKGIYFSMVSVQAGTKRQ

Compound | efflux ratio at 1 h, 1 μM (BCRP) | efflux ratio at 1 h, 1 μM (MDR1) | Kp,uu,CSF Human ([1]; *4 ref Friden et al. (21)) | Kp,uu,CSF Rat ([4]; *4 ref Friden et al. (21)) | further results
Nc1ccc(S(=O)(=O)c2ccc(N)cc2)cc1 [Dapsone] | 0.8 | 1.3 | – | – | Kp,uu,CSF Human ([1]; *11 ref Togashi et al. (29)): 1.56; Kp uu at 6 h (in vivo [2]; Kp,uu,CSF Monkey): 0.661; Kp uu at 6 h (in vivo [2]; Kp,uu,brain Monkey): 1.02
C#Cc1cccc(Nc2ncnc3cc(OCCOC)c(OCCOC)cc23)c1 [Erlotinib] | 5.8 | 19.8 | – | – | Kp,uu,CSF Human ([1]; *2 ref Post et al. (24)): 0.428; Kp uu (in vivo [3]; in vivo, Kp,uu,CSF Rat): 0.409; Kp uu (in vivo [3]; in vivo, Kp,uu,brain Rat): 0.061
COc1cc([C@@H]2c3cc4c(cc3[C@@H](O[C@@H]3O[C@@H]5CO[C@@H](C)O[C@H]5[C@H](O)[C@H]3O)[C@H]3COC(=O)[C@H]23)OCO4)cc(OC)c1O [Etoposide] | 3.7 | 6.1 | – | – | –
O=c1c(-c2ccc(O)cc2)coc2cc(O)cc(O)c12 [Genistein] | – | – | – | – | Kp,uu,CSF Monkey (in vivo [2]): 0.0369; Kp,uu,brain Monkey (in vivo [2]): 0.0128; Kp,uu,CSF Rat (in vivo [3]; *1 data internally obtained): 1.29; Kp,uu,brain Rat (in vivo [3]; *1 data internally obtained): 0.0238; Kp,uu,CSF Rat ([4]; *7 ref Kodaira et al. (20)): 0.589; Kp,uu,brain Rat ([4]; *7 ref Kodaira et al. (20)): 0.181
COc1ccc2c(c1)c(CC(=O)O)c(C)n2C(=O)c1ccc(Cl)cc1 [Indomethacin] | 12 | 3.2 | 0.27 | 0.17 | –
Nc1nnc(-c2cccc(Cl)c2Cl)c(N)n1 [Lamotrigine] | – | – | 1.1 | 0.86 | Kp,uu,brain Human [1]: 2.80; Kp,uu,CSF Monkey [5]: 0.875; Kp,uu,brain Monkey [5]: 0.678; Kp,uu,brain Rat ([4]; *3 ref Summerfield et al. (25)): 1.40
CN(Cc1cnc2nc(N)nc(N)c2n1)c1ccc(C(=O)N[C@@H](CCC(=O)O)C(=O)O)cc1 [Methotrexate] | 1.2 | 1.4 | 0.062 | 0.007 | –
CC(C)NCC(O)COc1cccc2[nH]ccc12 (centres unmarked) [Pindolol] | 1.2 | 5.7 | 0.52 | 0.11 | Kp,uu,brain Rat ([4]; *4 ref Friden et al. (21)): 0.500
COc1cc2nc(N3CCN(C(=O)c4ccco4)CC3)nc(N)c2cc1OC [Prazosin] | 18 | 52 | – | – | Kp uu at 6 h (in vivo [2]; Kp,uu,CSF Monkey): 0.289; Kp uu at 6 h (in vivo [2]; Kp,uu,brain Monkey): 0.253
CC(C)NCC(O)COc1cccc2ccccc12 (centres unmarked) [Propranolol] | 1 | – | 0.42 | 0.49 | Kp,uu,CSF Monkey [5]: 0.461; Kp,uu,brain Monkey [5]: 0.947
CN[C@H]1CC[C@@H](c2ccc(Cl)c(Cl)c2)c2ccccc21 [Sertraline] | 1.2 | 0.5 | – | – | –
CNC(=O)c1cc(Oc2ccc(NC(=O)Nc3ccc(Cl)c(C(F)(F)F)c3)cc2)ccn1 [Sorafenib] | – | – | – | – | Kp,uu,CSF Monkey (in vivo [2]): 0.0798; Kp,uu,brain Monkey (in vivo [2]): 0.0199; Kp,uu,CSF Rat (in vivo [3]; in vivo): 2.06; Kp,uu,brain Rat (in vivo [3]; in vivo): 0.0228
Nc1c2c(nc3ccccc13)CCCC2 [Tacrine] | 1.1 | 1 | – | – | Kp,uu,CSF Human ([1]; in vivo): 0.74; Kp,uu,CSF Rat ([4]; in vivo): 0.67
CC1(C)O[C@@H]2[C@@H](CO[C@@]3(COS(N)(=O)=O)OC(C)(C)O[C@@H]23)O1 [Topiramate] | 0.7 | 25 | 1 | 0.63 | Kp,uu,brain Rat ([4]; *4 ref Friden et al. (21)): 0.330
COc1ccc(C(CN(C)C)C2(O)CCCCC2)cc1 (centres unmarked) [Venlafaxine] | 0.7 | 7.6 | – | – | Kp,uu,brain Human [1]: 0.86; Kp,uu,brain Rat ([4]; *3 ref Summerfield et al. (25)): 1.074

— publication PMC8175309, “Translational CNS Steady-State Drug Disposition Model in Rats, Monkeys, and Humans for Quantitative Prediction of Brain-to-Plasma and Cerebrospinal Fluid-to-Plasma Unbound Concentration Ratios” (The AAPS Journal, 2021)
